According to patent US7262268B2, “Lipopeptide stereoisomers, methods for preparing same, and useful intermediates” (Cubist Pharmaceuticals, Inc., priority 2001, dated 2007):
Values after ≈ are worked out from the molar mass of the structure shown. Where two headings read alike, the source gives them in different places.

What was measured:
E. faecalis = type: cell-based
Procedure: (§1) Compounds according to Formula II were tested for antimicrobial activity against a panel of organisms according to standard procedures described by the National Committee for Clinical Laboratory Standards (NCCLS document M7-A5, Vol. 20, No. 2, 2000) except that all testing was performed at 37° C. Compounds were dissolved in 100% dimethyl sulfoxide and were diluted to the final reaction concentration (0.1 μg/mL-100 μg/mL) in microbial growth media. In all cases the final concentration of dimethyl sulfoxide incubated with cells is less than or equal to 1%. For minimum inhibitory concentration (MIC) calculations, 2-fold dilutions of compounds were added to wells of a microtiter plate containing 5×10^4 bacteria cells in a final volume of 100 μL of media (Mueller-Hinton Broth supplemented with 50 mg/L Ca^2+). The optical densities (OD) of the bacterial cells, which measures bacterial cell growth and proliferation, were measured using a commercial plate reader. The MIC value is defined as the lowest compound concentration inhibiting growth of the test organism.

S. aureus = type: cell-based
Procedure: as §1

[1] = Mueller-Hinton Broth supplemented with 50 mg/L Ca2+, 37° C., 2-fold dilutions

Row | MIC (μg/ml) E. faecalis (E. faecalis) [µg/mL] | MIC (μg/ml) S. aureus (S. aureus) [µg/mL] | Compound | MIC (μg/ml) E. faecalis (E. faecalis; [1]) [µg/mL] | MIC (μg/ml) S. aureus (S. aureus; [1]) [µg/mL]
1 | – | – | CCCCCCCCCC(=O)N[C@@H](Cc1c[nH]c2ccccc12)C(=O)N[C@@H](CC(N)=O)C(=O)N[C@@H](CC(=O)O)C(=O)N[C@@H]1C(=O)NCC(=O)N[C@@H](CCCN)C(=O)N[C@@H](CC(=O)O)C(=O)N[C@H](C)C(=O)N[C@@H](CC(=O)O)C(=O)NCC(=O)N[C@H](CO)C(=O)N[C@@H](C(C)CC(=O)O)C(=O)N[C@@H](CC(=O)c2ccccc2N)C(=O)O[C@@H]1C (stereo partly shown) [Compound HH] | 100 (≈ 61.7 µM) | 6.25 (≈ 3.86 µM)
2 | 6.26 (≈ 3.86 µM) | 0.78 (≈ 0.481 µM) | CCCCCCCCCC(=O)N[C@@H](Cc1c[nH]c2ccccc12)C(=O)N[C@H](CC(N)=O)C(=O)N[C@@H](CC(=O)O)C(=O)N[C@@H]1C(=O)NCC(=O)N[C@@H](CCCN)C(=O)N[C@@H](CC(=O)O)C(=O)N[C@H](C)C(=O)N[C@@H](CC(=O)O)C(=O)NCC(=O)N[C@H](CO)C(=O)N[C@@H]([C@H](C)CC(=O)O)C(=O)N[C@@H](CC(=O)c2ccccc2N)C(=O)O[C@@H]1C [Daptomycin] | – | –
